Results as given in PMC6205551, “Molecular analysis of the dual targeting of the epidermal growth factor receptor and the O^6-methylguanine-DNA methyltransferase with a double arm hybrid molecule” (Oncotarget, 2018).

Legend:
[1] = target: T1, O^6-methylguanine-DNA methyltransferase (MGMT) (Homo sapiens, UniProt P16455); test: MALDI-TOF MS of tryptic peptides of isolated MGMT incubated with […] compound (S-benzylation); type: binding
T1 sequence (P16455 1-207): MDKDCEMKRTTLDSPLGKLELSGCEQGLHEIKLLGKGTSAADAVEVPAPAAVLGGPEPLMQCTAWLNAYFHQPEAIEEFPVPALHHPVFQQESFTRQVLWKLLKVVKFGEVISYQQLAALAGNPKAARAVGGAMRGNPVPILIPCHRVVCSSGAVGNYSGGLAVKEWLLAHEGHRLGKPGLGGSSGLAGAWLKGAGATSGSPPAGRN

HER4 = target: T2, HER4 (Homo sapiens, UniProt Q15303); test: isolated kinase profiling (Carna), single dose […], ATP at Km; type: biochemical
T2 construct: gene ERBB4

HER2 = target: T3, HER2 (Homo sapiens, UniProt P04626); test: as above; type: biochemical
T3 construct: gene ERBB2

EGFR (L858R) = EGFR (L858R) (Homo sapiens, UniProt P00533, L858R); test: as above; type: biochemical
[2] = target: epidermal growth factor receptor (EGFR) (Homo sapiens, UniProt P00533); test: in vitro EGFR kinase assay (PGT substrate, […] ATP, ELISA); type: biochemical

T3 sequence (P04626 23-1255): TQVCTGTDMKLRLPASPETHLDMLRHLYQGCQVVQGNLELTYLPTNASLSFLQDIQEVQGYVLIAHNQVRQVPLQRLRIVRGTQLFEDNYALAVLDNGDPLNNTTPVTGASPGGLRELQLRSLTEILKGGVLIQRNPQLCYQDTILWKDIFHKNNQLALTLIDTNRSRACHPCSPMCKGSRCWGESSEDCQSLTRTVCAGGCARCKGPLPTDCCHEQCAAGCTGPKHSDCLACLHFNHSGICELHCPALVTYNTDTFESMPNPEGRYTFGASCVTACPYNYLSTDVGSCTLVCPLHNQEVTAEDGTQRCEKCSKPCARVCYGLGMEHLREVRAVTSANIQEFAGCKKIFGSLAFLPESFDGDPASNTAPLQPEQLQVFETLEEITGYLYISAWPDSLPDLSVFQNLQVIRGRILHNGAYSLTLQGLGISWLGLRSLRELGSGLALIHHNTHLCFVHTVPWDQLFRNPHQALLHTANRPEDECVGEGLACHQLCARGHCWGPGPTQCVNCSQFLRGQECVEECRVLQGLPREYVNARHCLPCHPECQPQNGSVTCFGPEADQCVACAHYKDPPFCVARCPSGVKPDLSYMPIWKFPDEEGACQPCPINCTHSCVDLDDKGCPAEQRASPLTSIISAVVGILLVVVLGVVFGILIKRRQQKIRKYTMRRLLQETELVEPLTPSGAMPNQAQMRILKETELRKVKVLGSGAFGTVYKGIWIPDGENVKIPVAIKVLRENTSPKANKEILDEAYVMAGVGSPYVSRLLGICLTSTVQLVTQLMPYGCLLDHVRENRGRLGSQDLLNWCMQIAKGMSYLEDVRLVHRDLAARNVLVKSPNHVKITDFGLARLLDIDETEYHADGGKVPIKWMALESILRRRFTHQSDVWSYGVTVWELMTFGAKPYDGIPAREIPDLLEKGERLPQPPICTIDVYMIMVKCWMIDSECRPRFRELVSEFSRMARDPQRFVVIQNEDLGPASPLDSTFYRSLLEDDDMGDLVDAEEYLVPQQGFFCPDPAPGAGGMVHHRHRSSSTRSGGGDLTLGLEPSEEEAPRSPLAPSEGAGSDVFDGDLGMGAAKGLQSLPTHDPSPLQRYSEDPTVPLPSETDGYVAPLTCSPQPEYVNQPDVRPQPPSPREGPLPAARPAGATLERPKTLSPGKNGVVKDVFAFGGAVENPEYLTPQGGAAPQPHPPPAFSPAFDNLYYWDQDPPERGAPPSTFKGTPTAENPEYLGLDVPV
T2 sequence (Q15303 26-1308): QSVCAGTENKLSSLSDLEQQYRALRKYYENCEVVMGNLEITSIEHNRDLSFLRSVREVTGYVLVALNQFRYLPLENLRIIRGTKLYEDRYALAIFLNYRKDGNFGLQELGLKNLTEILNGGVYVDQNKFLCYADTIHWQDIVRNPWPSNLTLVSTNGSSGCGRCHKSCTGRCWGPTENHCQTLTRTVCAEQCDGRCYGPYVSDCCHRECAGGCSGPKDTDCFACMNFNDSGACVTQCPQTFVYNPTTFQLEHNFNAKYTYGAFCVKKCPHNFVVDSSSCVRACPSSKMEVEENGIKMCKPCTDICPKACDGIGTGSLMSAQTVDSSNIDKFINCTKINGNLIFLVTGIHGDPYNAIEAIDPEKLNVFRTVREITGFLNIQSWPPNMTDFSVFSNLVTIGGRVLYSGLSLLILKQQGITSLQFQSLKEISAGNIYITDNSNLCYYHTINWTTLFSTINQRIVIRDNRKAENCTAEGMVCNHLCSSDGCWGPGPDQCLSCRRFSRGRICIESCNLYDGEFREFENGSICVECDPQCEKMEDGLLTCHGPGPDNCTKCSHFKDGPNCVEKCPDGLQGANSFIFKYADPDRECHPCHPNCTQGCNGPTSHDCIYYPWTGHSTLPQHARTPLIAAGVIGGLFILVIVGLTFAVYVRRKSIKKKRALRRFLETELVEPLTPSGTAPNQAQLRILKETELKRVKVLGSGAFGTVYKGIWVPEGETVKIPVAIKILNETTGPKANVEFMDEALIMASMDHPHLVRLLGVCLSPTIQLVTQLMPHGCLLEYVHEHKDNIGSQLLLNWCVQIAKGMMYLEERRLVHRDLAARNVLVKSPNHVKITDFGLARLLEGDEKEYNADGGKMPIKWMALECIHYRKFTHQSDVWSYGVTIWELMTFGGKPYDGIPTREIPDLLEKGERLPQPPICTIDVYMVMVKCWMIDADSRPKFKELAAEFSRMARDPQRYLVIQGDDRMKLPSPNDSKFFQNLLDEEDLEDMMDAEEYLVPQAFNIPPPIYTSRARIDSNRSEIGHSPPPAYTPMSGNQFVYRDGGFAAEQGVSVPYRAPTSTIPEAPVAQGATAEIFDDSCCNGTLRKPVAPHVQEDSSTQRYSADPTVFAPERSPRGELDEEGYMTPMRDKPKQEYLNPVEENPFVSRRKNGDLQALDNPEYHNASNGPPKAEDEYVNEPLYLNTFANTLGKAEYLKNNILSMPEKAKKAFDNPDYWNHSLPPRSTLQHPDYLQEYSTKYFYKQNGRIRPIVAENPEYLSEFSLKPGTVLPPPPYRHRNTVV

Row | IC50 [2] | SMILES | MALDI-TOF MS of tryptic peptides of isolated MGMT incubated with 10 μM compound [1] | isolated kinase profiling (Carna), single dose 500 nM, ATP at Km (HER4) | isolated kinase profiling (Carna), single dose 500 nM, ATP at Km (HER2) | isolated kinase profiling (Carna), single dose 500 nM, ATP at Km (EGFR (L858R))
1 | – | Nc1nc(OCc2ccccc2)c2nc[nH]c2n1 [O^6-BG] | when we treated MGMT with MR30 or O^6-BG, we observed a mass shift | – | – | –
2 | 300 ± 170 nM | Nc1nc(OCc2ccccc2)c2ncn(C(=O)N3CCN(CCNc4ccc5ncnc(Nc6cccc(Br)c6)c5c4)CC3)c2n1 [compound 5, (2-amino-6-(benzyloxy)-9H-purin-9-yl)(4-(2-((4-((3-bromophenyl)amino)quinazolin-6-yl)amino)ethyl)piperazin-1-yl)methanone] | like O^6-BG, MR30 is capable of binding to MGMT and alkylate its Cys145 | MR30 selectively inhibited kinases from HER family of proteins, including EGFR, EGFR (L858R, d746-750), HER2 and HER4 | MR30 selectively inhibited kinases from HER family of proteins, including EGFR, EGFR (L858R, d746-750), HER2 and HER4 | MR30, selectively inhibited kinases from the HER family of proteins [e.g. EGFR wild-type, EGFR (L858R)
